In ChEMBL document CHEMBL1155461, “Emerging targets in osteoporosis disease modification” (J Med Chem, 2010):
Values after ≈ are worked out from the molar mass of the structure shown.

Assays:
Homo sapiens [1] = assay: Antiosteoporotic activity in men with osteoporosis assessed as decrease in bone resorption-associated serum CTX-1 level at 250 mg/kg after 10 to 14 days; assay type: functional, organism-based; design: dose 250 mg/kg
[2] = target: Parathyroid hormone/parathyroid hormone-related peptide receptor (Homo sapiens, UniProt Q03431)
Homo sapiens [3] = assay: Induction of bone formation in postmenopausal woman assessed as increase in osteocalcin level at […] after 28 days relative to placebo control; assay type: functional
Homo sapiens [4] = assay: Induction of bone formation in postmenopausal woman assessed as increase in PINP level at […] after 28 days relative to placebo control; assay type: functional
Rattus norvegicus [5] = assay: Elevated PTH levels in ovariectomised rats as Cmax after 120 mg/kg oral dose; assay type: functional, organism-based; design: dose 120 mg/kg
Homo sapiens [6] = assay: Induction of bone formation in postmenopausal woman assessed as increase in ALP level at […] after 28 days relative to placebo control; assay type: functional
Rattus norvegicus [7] = assay: Elevated PTH levels in ovariectomised rats as Cmax after 60 mg/kg oral dose; assay type: functional, organism-based; design: dose 60 mg/kg
Rattus norvegicus [8] = assay: Elevated PTH levels in ovariectomised rats as Cmax after 30 mg/kg oral dose; assay type: functional, organism-based; design: dose 30 mg/kg
[9] = Cmax in rat at 50 mg/kg, po; assay type: ADME, organism-based; design: dose 50 mg/kg, route oral; details: in vivo
[10] = Selectivity for cathepsin K over cathepsin L
[11] = Selectivity for cathepsin K over cathepsin B
Cathepsin K = Cathepsin K (Rattus norvegicus, UniProt O35186); assay: Inhibition of rat cathepsin K
[12] = AUC in rat at 50 mg/kg, po; assay type: ADME, organism-based; design: dose 50 mg/kg, route oral; details: plasma
[13] = Selectivity for cathepsin K over cathepsin S
[14] = target: Prostaglandin E2 receptor EP3 subtype (Mus musculus, UniProt P30557); assay: Binding affinity to mouse EP3 receptor by competitive binding assay
Rattus norvegicus [15] = assay: Induction of bone formation in ovariectomized rat assessed as trabecular bone mineral content at 3 ug/kg, sc BID for 11 weeks (RVb = 200 mg/cm3); assay type: functional, Trabecula
Mus musculus = assay: Induction of bone formation in mouse assessed as increase in bone mineral content at 300 ug/kg administered into dorsal muscle pouch relative to control; assay type: functional, Muscle tissue
[16] = target: Prostaglandin E2 receptor EP4 subtype (Mus musculus, UniProt P32240); assay: Agonist activity at mouse EP4 receptor expressed in CHO cells assessed as cAMP production; assay type: functional, cell-based
MC3T3-E1 [17] = assay: Increase in ALP mRNA expression in mouse MC3T3-E1 cells at 30 uM relative to control; assay type: functional
MC3T3-E1 [18] = assay: Increase in octeocalcin mRNA expression in mouse MC3T3-E1 cells at 30 uM relative to control; assay type: functional
Homo sapiens [19] = organism: Homo sapiens; assay: Plasma protein binding in human; details: read-out: PPB (converted)
[20] = Bioavailability in dog; assay type: ADME, organism-based, Canis lupus familiaris; details: in vivo
[21] = Clearance in dog; assay type: ADME, organism-based, Canis lupus familiaris; details: in vivo
Homo sapiens [22] = assay: Antiosteoporotic activity in postmenopausal woman with osteoporosis assessed as increase in lumbar spine bone mineral density at 200 mg/kg BID for 12 months; assay type: functional
Rhesus monkey = assay: Antiosteoporotic activity in rhesus monkey assessed as decrease in bone resorption-associated urinary NTX-1 level at 15 mg/kg QD for 14 days; assay type: functional, Macaca mulatta, Urine; design: scale not given: the % may be the effect or the level left
Homo sapiens [23] = assay: Antiosteoporotic activity in postmenopausal woman with osteoporosis assessed as increase in hip bone mineral density at 200 mg/kg BID for 12 months; assay type: functional, Bone of hip region
[24] = Selectivity for integrin alphaVbeta3 over integrin alphaVbeta5
Rattus norvegicus [25] = assay: Antiosteoporotic activity in rat assessed as increase in distal femoral metaphysis bone mineral density at 10 mg/kg BID for 28 days relative to control; assay type: functional
Homo sapiens [26] = assay: Antiosteoporotic activity in postmenopausal woman with osteoporosis assessed as increase in femoral neck bone mineral density at 200 mg/kg BID for 12 months; assay type: functional
Rattus norvegicus [27] = assay: Antiosteoporotic activity in rat assessed as increase in distal femoral metaphysis bone mineral density at 30 mg/kg BID for 28 days relative to control; assay type: functional
[28] = Half life in po dosed rat; assay type: ADME, organism-based; details: in vivo
[29] = Clearance in po dosed dog; assay type: ADME, organism-based, Canis lupus familiaris; details: in vivo
[30] = Clearance in po dosed rat; assay type: ADME, organism-based; details: in vivo
[31] = target: Extracellular calcium-sensing receptor (Bos taurus, UniProt P35384); assay: Inhibition of CaSR in bovine parathyroid cells assessed as increase in PTH level; assay type: cell-based
[32] = Oral bioavailability in rat; assay type: ADME, organism-based; details: in vivo
[33] = target: T1, Extracellular calcium-sensing receptor (Homo sapiens, UniProt P41180)
T1 sequence (P41180 whole entry): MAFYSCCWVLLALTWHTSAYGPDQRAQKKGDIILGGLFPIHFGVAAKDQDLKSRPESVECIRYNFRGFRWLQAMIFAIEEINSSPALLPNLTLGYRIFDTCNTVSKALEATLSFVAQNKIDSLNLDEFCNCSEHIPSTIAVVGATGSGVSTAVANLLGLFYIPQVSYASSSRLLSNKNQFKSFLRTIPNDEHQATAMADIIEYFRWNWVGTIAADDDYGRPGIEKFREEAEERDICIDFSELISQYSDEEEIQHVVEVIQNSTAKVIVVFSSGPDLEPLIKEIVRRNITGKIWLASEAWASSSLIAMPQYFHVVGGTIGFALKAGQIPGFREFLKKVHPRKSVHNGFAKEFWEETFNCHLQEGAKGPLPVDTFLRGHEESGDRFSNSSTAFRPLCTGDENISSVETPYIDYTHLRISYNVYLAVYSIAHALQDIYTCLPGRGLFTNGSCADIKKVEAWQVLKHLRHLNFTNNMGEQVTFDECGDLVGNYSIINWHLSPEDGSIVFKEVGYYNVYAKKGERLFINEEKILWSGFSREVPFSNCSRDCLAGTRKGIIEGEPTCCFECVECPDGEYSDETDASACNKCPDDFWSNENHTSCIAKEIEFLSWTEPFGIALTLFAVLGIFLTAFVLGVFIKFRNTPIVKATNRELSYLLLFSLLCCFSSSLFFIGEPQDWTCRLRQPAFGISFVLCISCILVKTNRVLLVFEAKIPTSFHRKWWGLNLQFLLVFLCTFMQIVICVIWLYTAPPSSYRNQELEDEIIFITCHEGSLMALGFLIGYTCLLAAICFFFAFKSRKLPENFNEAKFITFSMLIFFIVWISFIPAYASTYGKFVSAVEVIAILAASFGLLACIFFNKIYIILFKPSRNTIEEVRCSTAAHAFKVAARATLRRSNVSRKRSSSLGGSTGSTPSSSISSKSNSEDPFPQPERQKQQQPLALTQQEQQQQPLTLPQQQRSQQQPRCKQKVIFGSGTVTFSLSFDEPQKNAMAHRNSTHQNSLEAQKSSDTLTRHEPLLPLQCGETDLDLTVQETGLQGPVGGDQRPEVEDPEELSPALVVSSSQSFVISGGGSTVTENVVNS

Osteoclast = assay: Inhibition of bone resorption in human osteoclast assessed as decrease in CTX-1 level at 100 uM; assay type: functional
[34] = Half life in rat; assay type: ADME, organism-based; details: in vivo
[35] = target: Integrin alpha-IIb/beta-3 (Homo sapiens) (UniProt P05106+P08514); assay: Inhibition of integrin alpha2Bbeta3; assay type: protein-complex assay
Integrin alpha-V/beta-3 = Integrin alpha-V/beta-3 (Homo sapiens, UniProt P05106+P06756)
[36] = target: Vitronectin (Homo sapiens) (UniProt P04004); assay: Inhibition of vitronectin
[37] = Clearance in rat; assay type: ADME, organism-based; details: in vivo
[38] = Aqueous solubility of the compound; assay type: physicochemical; details: aqueous medium
Homo sapiens [39] = assay: Antiosteoporotic activity in patient with osteoporosis assessed as increase in lumbar spine bone mineral density at 50 mg/kg, po administered weekly for 24 months relative to placebo control; assay type: functional
Homo sapiens [40] = assay: Antiosteoporotic activity in patient with osteoporosis assessed as increase in hip bone mineral density at 50 mg/kg, po administered weekly for 24 months relative to placebo control; assay type: functional, Bone of hip region
[41] = Bioavailability in rat; assay type: ADME, organism-based; details: in vivo
[42] = Selectivity for cathepsin K over cathepsin V
[43] = Selectivity for cathepsin K over cathepsin F
[44] = Selectivity for cathepsin K over cathepsin H
[45] = Induction of osteogenesis in mouse calvarial cells assessed as increase in total bone area at 10 nM; assay type: functional, Calvarial cell
Cynomolgus monkey [46] = assay: Antiosteoporotic activity in cynomolgus monkey assessed as increase in lumbar vertebrae bone strength at 1000 mg/kg administered daily for 1 year; assay type: functional, Macaca fascicularis, Lumbar vertebra
Cynomolgus monkey [47] = assay: Antiosteoporotic activity in cynomolgus monkey assessed as decrease in bone resorption-associated serum CTX-1 level at 10 mg/kg, po administered as single dose; assay type: functional; details: Macaca fascicularis
Cynomolgus monkey [48] = assay: Antiosteoporotic activity in cynomolgus monkey assessed as decrease in bone resorption-associated urinary CTX-1 level at 10 mg/kg, po administered as single dose; assay type: functional; details: Macaca fascicularis, Urine
Cynomolgus monkey [49] = assay: Antiosteoporotic activity in cynomolgus monkey assessed as decrease in bone resorption-associated serum CTX-1 level at 10 mg/kg, po administered 5X a day; assay type: functional; details: Macaca fascicularis
Cynomolgus monkey [50] = assay: Antiosteoporotic activity in cynomolgus monkey assessed as increase in lumbar vertebrae bone strength at 30 mg/kg administered daily for 1 year; assay type: functional, Macaca fascicularis, Lumbar vertebra
Cynomolgus monkey [51] = assay: Antiosteoporotic activity in cynomolgus monkey assessed as decrease in bone resorption-associated urinary CTX-1 level at 10 mg/kg, po administered 5X a day; assay type: functional; details: Macaca fascicularis, Urine

Prostaglandin E2 receptor EP4 subtype, sequence (P32240 whole entry): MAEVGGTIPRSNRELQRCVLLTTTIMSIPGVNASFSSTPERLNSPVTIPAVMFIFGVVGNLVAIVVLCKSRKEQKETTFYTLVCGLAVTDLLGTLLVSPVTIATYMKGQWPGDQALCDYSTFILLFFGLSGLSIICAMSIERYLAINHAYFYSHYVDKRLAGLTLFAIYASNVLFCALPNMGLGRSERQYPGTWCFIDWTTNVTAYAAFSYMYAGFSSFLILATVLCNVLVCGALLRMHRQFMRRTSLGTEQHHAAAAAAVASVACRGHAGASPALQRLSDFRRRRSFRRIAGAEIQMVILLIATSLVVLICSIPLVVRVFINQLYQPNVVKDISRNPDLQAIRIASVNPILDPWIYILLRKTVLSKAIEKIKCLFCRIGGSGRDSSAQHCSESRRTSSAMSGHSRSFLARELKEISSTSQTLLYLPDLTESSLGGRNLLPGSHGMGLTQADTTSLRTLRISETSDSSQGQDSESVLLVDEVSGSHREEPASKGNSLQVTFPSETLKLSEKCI
Prostaglandin E2 receptor EP3 subtype, sequence (P30557 whole entry): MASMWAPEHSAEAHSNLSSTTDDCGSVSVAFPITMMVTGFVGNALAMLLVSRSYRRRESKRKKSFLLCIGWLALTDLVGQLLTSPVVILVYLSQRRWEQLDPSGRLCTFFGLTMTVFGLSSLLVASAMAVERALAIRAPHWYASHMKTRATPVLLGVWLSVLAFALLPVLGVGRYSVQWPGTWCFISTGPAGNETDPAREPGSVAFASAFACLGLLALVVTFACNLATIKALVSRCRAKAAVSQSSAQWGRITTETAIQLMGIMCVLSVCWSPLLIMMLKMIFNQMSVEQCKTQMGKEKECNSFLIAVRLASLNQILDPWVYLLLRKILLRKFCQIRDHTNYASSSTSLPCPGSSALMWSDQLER
Cathepsin K, sequence (O35186 whole entry): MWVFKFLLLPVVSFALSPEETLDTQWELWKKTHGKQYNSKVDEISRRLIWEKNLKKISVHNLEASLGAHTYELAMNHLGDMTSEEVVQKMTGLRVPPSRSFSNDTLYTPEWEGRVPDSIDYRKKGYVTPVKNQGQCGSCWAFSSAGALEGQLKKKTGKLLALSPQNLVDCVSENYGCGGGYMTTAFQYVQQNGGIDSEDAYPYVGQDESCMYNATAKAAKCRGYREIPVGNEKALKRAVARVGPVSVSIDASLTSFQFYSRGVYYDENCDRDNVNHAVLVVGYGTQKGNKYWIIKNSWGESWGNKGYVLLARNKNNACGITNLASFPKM
Integrin alpha-V/beta-3, sequence (P05106 27-788 limits assumed): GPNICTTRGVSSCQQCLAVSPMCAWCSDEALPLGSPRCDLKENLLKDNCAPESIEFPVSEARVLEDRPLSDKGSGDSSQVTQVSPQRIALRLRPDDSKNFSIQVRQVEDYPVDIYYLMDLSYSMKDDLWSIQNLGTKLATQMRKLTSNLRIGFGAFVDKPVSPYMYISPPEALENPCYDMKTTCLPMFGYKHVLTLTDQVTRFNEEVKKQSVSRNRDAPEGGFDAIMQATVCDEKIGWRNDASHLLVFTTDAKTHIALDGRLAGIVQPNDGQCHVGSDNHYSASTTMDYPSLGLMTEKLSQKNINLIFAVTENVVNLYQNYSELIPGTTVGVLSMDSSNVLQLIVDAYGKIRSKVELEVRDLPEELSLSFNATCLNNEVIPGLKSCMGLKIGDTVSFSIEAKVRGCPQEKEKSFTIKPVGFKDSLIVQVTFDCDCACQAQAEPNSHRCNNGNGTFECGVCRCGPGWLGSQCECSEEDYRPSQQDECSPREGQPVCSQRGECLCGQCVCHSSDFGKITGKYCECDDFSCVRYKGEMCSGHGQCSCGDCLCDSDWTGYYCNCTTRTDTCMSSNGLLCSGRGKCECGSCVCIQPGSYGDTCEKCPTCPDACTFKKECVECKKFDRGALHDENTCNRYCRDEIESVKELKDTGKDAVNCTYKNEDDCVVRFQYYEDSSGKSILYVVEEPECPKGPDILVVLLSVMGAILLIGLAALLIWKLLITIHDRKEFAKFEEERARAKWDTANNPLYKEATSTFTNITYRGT
Integrin alpha-V/beta-3, sequence (P06756 31-889 limits assumed): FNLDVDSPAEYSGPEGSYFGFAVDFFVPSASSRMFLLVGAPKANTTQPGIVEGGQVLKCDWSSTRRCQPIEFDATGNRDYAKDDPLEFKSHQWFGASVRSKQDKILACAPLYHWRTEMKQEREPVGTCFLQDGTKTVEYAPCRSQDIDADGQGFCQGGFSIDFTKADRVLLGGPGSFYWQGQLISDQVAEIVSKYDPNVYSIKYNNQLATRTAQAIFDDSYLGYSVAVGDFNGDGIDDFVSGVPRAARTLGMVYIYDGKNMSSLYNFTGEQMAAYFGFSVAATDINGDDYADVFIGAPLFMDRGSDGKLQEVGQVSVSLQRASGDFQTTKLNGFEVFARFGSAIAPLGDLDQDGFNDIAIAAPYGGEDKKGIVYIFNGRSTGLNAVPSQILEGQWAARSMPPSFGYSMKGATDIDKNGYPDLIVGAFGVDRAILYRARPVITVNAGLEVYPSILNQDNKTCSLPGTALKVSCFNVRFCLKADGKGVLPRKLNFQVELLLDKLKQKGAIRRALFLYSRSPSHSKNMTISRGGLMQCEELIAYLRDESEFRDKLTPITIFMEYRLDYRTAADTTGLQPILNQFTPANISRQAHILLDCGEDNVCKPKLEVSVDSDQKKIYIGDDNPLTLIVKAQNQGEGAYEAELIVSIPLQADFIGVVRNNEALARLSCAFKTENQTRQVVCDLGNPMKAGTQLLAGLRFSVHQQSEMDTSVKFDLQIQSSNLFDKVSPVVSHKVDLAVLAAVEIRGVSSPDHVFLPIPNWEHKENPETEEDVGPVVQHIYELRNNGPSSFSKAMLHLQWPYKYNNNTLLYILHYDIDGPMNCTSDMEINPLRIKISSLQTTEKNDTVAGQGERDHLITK
Integrin alpha-V/beta-3, sequence (P06756 891-1048 limits assumed): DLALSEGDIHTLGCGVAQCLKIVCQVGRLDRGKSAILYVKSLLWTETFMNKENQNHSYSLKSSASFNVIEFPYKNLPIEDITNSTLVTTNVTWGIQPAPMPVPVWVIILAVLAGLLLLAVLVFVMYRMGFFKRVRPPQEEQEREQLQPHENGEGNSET
Parathyroid hormone/parathyroid hormone-related peptide receptor, sequence (Q03431 whole entry): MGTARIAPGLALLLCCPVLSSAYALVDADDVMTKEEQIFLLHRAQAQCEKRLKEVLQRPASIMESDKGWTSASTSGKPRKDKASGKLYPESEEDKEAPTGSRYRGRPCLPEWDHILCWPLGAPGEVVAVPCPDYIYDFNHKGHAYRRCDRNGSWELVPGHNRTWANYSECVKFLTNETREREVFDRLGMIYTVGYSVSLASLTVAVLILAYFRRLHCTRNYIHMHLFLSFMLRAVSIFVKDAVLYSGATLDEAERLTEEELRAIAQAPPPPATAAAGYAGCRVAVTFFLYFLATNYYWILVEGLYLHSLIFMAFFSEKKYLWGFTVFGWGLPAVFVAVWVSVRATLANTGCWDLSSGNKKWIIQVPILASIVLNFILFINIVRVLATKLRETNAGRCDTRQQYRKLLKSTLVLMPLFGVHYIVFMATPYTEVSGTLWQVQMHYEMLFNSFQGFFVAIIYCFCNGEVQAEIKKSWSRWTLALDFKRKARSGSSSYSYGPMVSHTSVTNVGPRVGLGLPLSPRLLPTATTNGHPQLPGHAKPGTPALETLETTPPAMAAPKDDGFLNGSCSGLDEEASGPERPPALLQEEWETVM
Extracellular calcium-sensing receptor (Bos taurus, UniProt P35384), sequence (P35384 whole entry): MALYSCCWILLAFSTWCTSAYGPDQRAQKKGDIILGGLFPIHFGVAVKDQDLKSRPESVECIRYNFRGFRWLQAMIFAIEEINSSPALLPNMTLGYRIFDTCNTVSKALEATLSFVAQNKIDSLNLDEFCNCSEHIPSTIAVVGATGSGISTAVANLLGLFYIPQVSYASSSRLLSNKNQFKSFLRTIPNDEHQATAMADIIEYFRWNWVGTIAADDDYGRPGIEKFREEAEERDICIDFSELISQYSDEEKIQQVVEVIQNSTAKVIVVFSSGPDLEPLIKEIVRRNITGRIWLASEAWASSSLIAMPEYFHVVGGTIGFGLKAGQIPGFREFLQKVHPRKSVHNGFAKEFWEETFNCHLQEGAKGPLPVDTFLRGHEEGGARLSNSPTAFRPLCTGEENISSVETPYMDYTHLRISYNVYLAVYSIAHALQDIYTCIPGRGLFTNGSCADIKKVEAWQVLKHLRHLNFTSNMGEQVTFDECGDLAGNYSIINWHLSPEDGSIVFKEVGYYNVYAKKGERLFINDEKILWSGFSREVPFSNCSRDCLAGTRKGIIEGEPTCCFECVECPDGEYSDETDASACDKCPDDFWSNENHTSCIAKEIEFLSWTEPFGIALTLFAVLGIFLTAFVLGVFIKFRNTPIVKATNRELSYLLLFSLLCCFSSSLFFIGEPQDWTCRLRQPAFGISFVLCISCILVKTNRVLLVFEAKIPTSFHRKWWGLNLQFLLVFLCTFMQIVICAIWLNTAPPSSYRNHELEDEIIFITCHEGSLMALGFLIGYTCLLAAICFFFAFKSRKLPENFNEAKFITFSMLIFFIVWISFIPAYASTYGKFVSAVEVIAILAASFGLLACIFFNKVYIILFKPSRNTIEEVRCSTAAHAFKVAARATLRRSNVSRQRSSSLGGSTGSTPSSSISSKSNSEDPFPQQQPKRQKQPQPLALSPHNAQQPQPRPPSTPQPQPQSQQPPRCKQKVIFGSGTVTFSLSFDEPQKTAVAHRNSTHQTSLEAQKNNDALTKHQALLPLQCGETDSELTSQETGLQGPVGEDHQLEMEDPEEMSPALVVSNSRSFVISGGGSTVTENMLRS

CCCCN1C(=O)C(=C(N)N)C(=O)N(CCCC)C1=O
EC50 (Homo sapiens [1]): 1500 nM | EC50 [2]: 3.2 µM

CC(C)(CC1Cc2ccccc2C1)NC[C@@H](O)COc1cc(CCC(=O)O)cc(F)c1F.Cl [RONACALERET HYDROCHLORIDE]
Activity (Homo sapiens [3]): 63% | Activity (Homo sapiens [4]): 79% | Cmax PTH (Rattus norvegicus [5]): 68 pM | Activity (Homo sapiens [6]): 35% | Cmax PTH (Rattus norvegicus [7]): 66 pM | Cmax PTH (Rattus norvegicus [8]): 33 pM

CC[C@@H](CNc1ccc(OCC(=O)O)cc1)NC(=O)C1(Nc2cccc(-c3ccccc3)c2)CCCCC1
Cmax [9]: 9200 ng/mL | Selectivity ratio [10]: > 4170 | Selectivity ratio [11]: > 4170 | IC50 (Cathepsin K): 58 nM | AUC [12]: 104 µg·h/mL | Selectivity ratio [13]: 2080

COCc1cccc(C[C@H](O)/C=C/[C@H]2[C@H](O)CC(=O)[C@@H]2CCSCCCC(=O)OC)c1 [RIVENPROST]
Ki [14]: 56 nM | Activity (Rattus norvegicus [15]): 378 mg/cm3 | fold change (FC) (Mus musculus): 3 | EC50 [16]: 1.6 nM

C/C(=C\Cc1c(O)cc2occ(-c3ccc(O)cc3)c(=O)c2c1O)CO [GLABRISOFLAVONE]
Activity (MC3T3-E1 [17]): 58% | Activity (MC3T3-E1 [18]): 58%

COc1ccc([C@@H](CCC[C@H](O)CCc2ccc3c(n2)NCCC3)CC(=O)O)cn1
fraction unbound (Homo sapiens [19]): 0.07 | bioavailability [20]: 60% | clearance [21]: 2.5 mL/min/kg

COc1ccc([C@H](CC(=O)O)N2CCN(CCCc3ccc4c(n3)NCCC4)C2=O)cn1
Activity (Homo sapiens [22]): 3.5% | Activity (Rhesus monkey): 39% | fraction unbound (Homo sapiens [19]): 0.12 | Activity (Homo sapiens [23]): 1.7% | Selectivity ratio [24]: 125 | Activity (Rattus norvegicus [25]): 8.9% | Activity (Homo sapiens [26]): 2.4% | Activity (Rattus norvegicus [27]): 12.8% | half-life [28]: 180 min | CL/F [29]: 6.4 mL/min/kg | CL/F [30]: 47 mL/min/kg

CC(C)(Cc1ccc2ccccc2c1)NC[C@@H](O)COc1cccc(Cl)c1C#N
EC50 [31]: 41 nM

Cc1ccc(CC(C)(C)NC[C@@H](O)CO[C@H](C)c2ccccc2[C@@H]2C[C@@H]3C[C@H]2[C@H]2[C@H](C(=O)O)[C@@H]32)cc1F
bioavailability [32]: 60% | IC50 [33]: 25 nM

CC(C)C[C@H](NC(=O)c1ccc(C(C)(C)C)cc1)C(=O)N1CC[C@@H]2[C@H]1C(=O)CN2C(=O)c1ccccc1
Selectivity ratio [10]: > 347 | inhibition at 100 µM (Osteoclast): 75% | Selectivity ratio [11]: > 990 | Selectivity ratio [13]: > 446

COc1cc(C(=O)NC[C@H](NS(=O)(=O)c2ccccc2)C(=O)O)ccc1N1CCC(NC2=NCCCN2)CC1
half-life [34]: 46 min | INH [35]: 0.44 nM | IC50 (Integrin alpha-V/beta-3): 0.19 nM | INH [36]: 110 nM | clearance [37]: 47 mL/min/kg | solubility [38]: 1300 µg/mL (≈ 2330 µM)

CC(C)(F)C[C@H](N[C@@H](c1ccc(-c2ccc(S(C)(=O)=O)cc2)cc1)C(F)(F)F)C(=O)NC1(C#N)CC1 [ODANACATIB]
Activity (Homo sapiens [39]): 5.5% | Selectivity ratio [10]: 15000 | bioavailability [20]: ≤ 100% | Activity (Homo sapiens [40]): 3.2% | Selectivity ratio [11]: 5170 | bioavailability [41]: ≤ 38% | Selectivity ratio [42]: 3810 | Selectivity ratio [43]: 3980 | Selectivity ratio [13]: 300 | Selectivity ratio [44]: > 50000

O=S(=O)(NC1CCNCC1)c1cc(S(=O)(=O)c2ccccc2)ccc1C(F)(F)F
Activity [45]: 60%

CC(C)C[C@H](NC(=O)c1cc2ccccc2o1)C(=O)N[C@H]1CC[C@@H](C)N(S(=O)(=O)c2ccccn2)CC1=O [RELACATIB]
Activity (Cynomolgus monkey [46]): 49% | inhibition in vivo at 10 mg/kg (Cynomolgus monkey [47]): ≤ 57% | inhibition in vivo at 10 mg/kg (Cynomolgus monkey [48]): ≤ 57% | inhibition in vivo at 10 mg/kg (Cynomolgus monkey [49]): ≤ 57% | Activity (Cynomolgus monkey [50]): 42% | inhibition in vivo at 10 mg/kg (Cynomolgus monkey [51]): ≤ 57%
